According to PMC3558989 (Journal of Chemotherapy (Florence, Italy), 2013):

Key:
[1] = system: 20 strains of staphylococci, including 10 MRSA; experiment: MIC with and without pulmonary surfactant, all strains; type: cell-based, S. aureus; settings: for effect of pulmonary surfactant on MICs: in words
[2] = system: MSSA 29213, MRSA A6250596 (fluoroquinolone-resistant) and MRSA A7080336; experiment: Further combination study of AFN-1252; type: cell-based, S. aureus; settings: three strains
MRSA 1659 = experiment: Effect of serum on rate of kill; type: cell-based, S. aureus; settings: for reduction in the viable count: 10 hours
[3] = system: serum proteins of mouse, rat, dog and humans; experiment: Serum protein-binding assays, summary over methods and species; type: in vitro ADME, human
S. aureus Smith = settings: single oral dose of 1 mg/kg, mouse; cited from earlier work
in vitro = settings: mouse
MSSA 29213 = experiment: Effect of serum binding on MIC

For `CCCCCCCCCC(=O)N[C@@H](Cc1c[nH]c2ccccc12)C(=O)N[C@H](CC(N)=O)C(=O)N[C@@H](CC(=O)O)C(=O)N[C@@H]1C(=O)NCC(=O)N[C@@H](CCCN)C(=O)N[C@@H](CC(=O)O)C(=O)N[C@H](C)C(=O)N[C@@H](CC(=O)O)C(=O)NCC(=O)N[C@H](CO)C(=O)N[C@@H]([C@H](C)CC(=O)O)C(=O)N[C@@H](CC(=O)c2ccccc2N)C(=O)O[C@@H]1C` [Daptomycin], the “elevation of MICs” value ([1]; presence of surfactant at 0·8 mg/ml) was “at least 32 fold”.

For `COc1c(N2CCNC(C)C2)c(F)cc2c(=O)c(C(=O)O)cn(C3CC3)c12` (stereo not shown) [gatifloxacin], the “interaction with AFN-1252” value [2] was “did not detect any synergy or antagonism”.

With `CC[C@H]1OC(=O)[C@H](C)[C@@H](O[C@H]2C[C@@](C)(OC)[C@@H](O)[C@H](C)O2)[C@H](C)[C@@H](O[C@@H]2O[C@H](C)C[C@H](N(C)C)[C@H]2O)[C@](C)(O)C[C@@H](C)CN(C)[C@H](C)[C@@H](O)[C@]1(C)O` [azithromycin] the “interaction with AFN-1252” value [2] was “did not detect any synergy or antagonism”.

With `Cc1c(CN(C)C(=O)/C=C/c2cnc3c(c2)CCC(=O)N3)oc2ccccc12` [AFN-1252] the “effect on viable count” value (MRSA 1659; 75% human serum, 8× MIC) was “bacteriostatic activity”, the “reduction in the viable count” value (MRSA 1659; 75% human serum, 64× MIC) was 2 log10 and the “effect on viable count” value (MRSA 1659; 75% mouse serum, 64× MIC) was “bacteriostasis”. For the same molecule, the “reduction in the viable count” value (MRSA 1659; absence of serum, 4× MIC) was 1–2 log10, the “reduction in the viable count” value (MRSA 1659; absence of serum, 64× MIC) was 4 log and the “effect of pulmonary surfactant on MICs” value [1] was “not affected”. For the same molecule, the “serum binding, equilibrium dialysis” value ([3]; all serum types, all concentrations) was “exceeded 95%”, the “binding to serum proteins” value ([3]; mouse, rat, dog and humans, overall) was ~95% and the “protection from lethal peritoneal infection” value (S. aureus Smith) was 100%. The fraction unbound (in vitro) was 0.06 to 0.08, the “increase in MIC” value (MSSA 29213; 4% human serum albumin in CAMHB) was 8 fold and the “increase in MIC” value (MSSA 29213; 50% human serum vs serum-free CAMHB) was 8 fold. The “binding from MIC shift” value (MSSA 29213; 50% serum) was “approximately 90%”.

With `C[C@H]1COc2c(N3CCN(C)CC3)c(F)cc3c(=O)c(C(=O)O)cn1c23` [Levofloxacin] the “interaction with AFN-1252” value [2] was “did not detect any synergy or antagonism”.

With `C[C@@H](O)[C@H]1C(=O)N2C(C(=O)O)=C(S[C@@H]3CN[C@H](C(=O)N(C)C)C3)[C@H](C)[C@H]12` [meropenem] the “interaction with AFN-1252” value [2] was “did not detect any synergy or antagonism”.

With `CO/N=C(\C(=O)N[C@@H]1C(=O)N2C(C(=O)O)=C(COC(N)=O)CS[C@H]12)c1ccco1` [Cefuroxime] the “interaction with AFN-1252” value [2] was “did not detect any synergy or antagonism”.

In the case of `CN[C@H](CC(C)C)C(=O)N[C@H]1C(=O)N[C@@H](CC(N)=O)C(=O)N[C@H]2C(=O)N[C@H]3C(=O)N[C@H](C(=O)N[C@H](C(=O)O)c4cc(O)cc(O)c4-c4cc3ccc4O)[C@H](O)c3ccc(c(Cl)c3)Oc3cc2cc(c3O[C@@H]2O[C@H](CO)[C@@H](O)[C@H](O)[C@H]2O[C@H]2C[C@](C)(N)[C@H](O)[C@H](C)O2)Oc2ccc(cc2Cl)[C@H]1O` [Vancomycin], the “effect of pulmonary surfactant on MICs” value [1] is reported as “generally unaffected”.

For `CO/N=C(\C(=O)N[C@@H]1C(=O)N2C(C(=O)O)=C(CSc3nc(=O)c(=O)[nH]n3C)CS[C@H]12)c1csc(N)n1` [ceftriaxone], the “interaction with AFN-1252” value [2] was “did not detect any synergy or antagonism”.

In the case of penicillin, the “interaction with AFN-1252” value [2] is reported as “did not detect any synergy or antagonism”.
